Patent USRE49022E1, “Insecticidal compounds” (SYNGENTA PARTICIPATIONS AG, priority 2013, dated 2022)

Key:
Format in all cases: in vivo
[1] = test system: Thrips tabaci (Onion Thrips); assay: Thrips tabaci, sunflower leaf disc spray test; conditions: foliar, 168 h, sprayed sunflower leaf discs, mortality after 7 days
[2] = test system: Tetranychus urticae (Two-Spotted Spider Mite); assay: Tetranychus urticae, bean leaf disc spray test; conditions: foliar, 192 h, sprayed bean leaf discs, mite populations of mixed ages, 8 days
Description: Bean leaf discs on agar in 24-well microtiter plates were sprayed with test solutions at an application rate of 200 ppm. After drying, the leaf discs are infested with mite populations of mixed ages. 8 days later, discs were checked for mortality.

[3] = test system: Spodoptera littoralis (Egyptian Cotton Leafworm); assay: Spodoptera littoralis, cotton leaf disc spray test; conditions: foliar, 72 h, sprayed cotton leaf discs, L1 larvae, 3 days after treatment
Description: Cotton leaf discs were placed on agar in a 24-well microtiter plate and sprayed with test solutions at an application rate of 200 ppm. After drying, the leaf discs were infested with 5 L1 larvae. The samples were checked for mortality 3 days after treatment (DAT).

[4] = test system: Myzus persicae (Green Peach Aphid); assay: Myzus persicae, sucrose solution / Parafilm test; conditions: 120 h, mixed with sucrose solution under Parafilm, mortality 5 days after infestation
Description: Test compounds were applied by pipette into 24 well plates and mixed with Sucrose solution. Application rate: 12.5 ppm. The plates were closed with a stretched Parafilm. A plastic stencil with 24 holes is placed onto the plate and infested pea seedlings were placed directly on the Parafilm. The infested plate is closed with a gel blotting paper and another plastic stencil and then turned upside down. 5 days after infestation the samples were checked on mortality.

[5] = test system: Myzus persicae (Green Peach Aphid); assay: Myzus persicae, sunflower leaf disc spray test; conditions: foliar, 144 h, sprayed sunflower leaf discs, aphid population of mixed ages, mortality after 6 DAT
Description: Sunflower leaf discs were placed on agar in a 24-well microtiter plate and sprayed with test solutions at an application rate of 200 ppm. After drying, the leaf discs were infested with an aphid population of mixed ages. After an incubation period of 6 DAT, samples were checked for mortality.

[6] = test system: Spodoptera littoralis (Egyptian Cotton Leaf Worm); assay: Spodoptera littoralis, agar / lettuce root uptake test; conditions: 144 h, mixed with agar, uptake by lettuce roots, mortality 6 days after infestation
Description: Test compounds were applied by pipette into 24 well plates and mixed with agar. Application rate: 12.5 ppm. Lettuce seeds were placed on the agar and the multi well plate is closed by another plate which contains also agar. After 7 days the roots have absorbed the compound and the lettuce has grown into the lid plate. The lettuce leafs were now cut off into the lid plate. Spodoptera eggs were pipetted through a plastic stencil on a humid gel blotting paper and the plate closed with it. The samples are checked for mortality 6 days after infestation.

[7] = test system: Diabrotica balteata (Corn Root Worm); assay: Diabrotica balteata, artificial diet MTP test; conditions: 120 h, 200 ppm (concentration in well 18 ppm), L2 larvae, larval mortality after 5 days
Description: A 24-well microtiter plate (MTP) with artificial diet was treated with test solutions at an application rate of 200 ppm (concentration in well 18 ppm) by pipetting. After drying, the MTP's were infested with L2 larvae (6-10 per well). After an incubation period of 5 days, samples were checked for larval mortality The following compound gave at least 80% control of Diabrotica balteata: 1, 2, 3, 4, 5, 6, 7, 8, 9, 10, 11, 12, 13, 14, 15, 16, 17, 18, 19, 20, 21, 22, 23, 24, 25, 26, 27, 28, 29, 30, 31, 32, 33, 34, 35, 36, 37, 38, 39, 40, 41, 42, 43, 44, 45, 46, 47, 48, 49, 50, 51.

[8] = test system: Plutella xylostella (Diamond Back Moth); assay: Plutella xylostella, artificial diet MTP test; conditions: 144 h, 200 ppm (concentration in well 18 ppm), L2 larvae, 6 days
Description: 24-well microtiter plate (MTP) with artificial diet was treated with test solutions at an application rate of 200 ppm (concentration in well 18 ppm) by pipetting. After drying, the MTP's were infested with L2 larvae (7-12 per well). After an incubation period of 6 days, samples were checked for larval mortality and growth regulation. The following compound gave at least 80% mortality of Plutella xylostella: 1, 2, 3, 4, 5, 6, 7, 8, 9, 10, 11, 12, 13, 14, 15, 16, 17, 18, 19, 20, 21, 22, 23, 24, 25, 26, 27, 28, 29, 30, 31, 32, 33, 34, 35, 36, 37, 38, 39, 40, 41, 42, 43, 44, 45, 46, 47, 48, 49, 50.

O=C(Nc1cccc(C(=O)Nc2c(Br)cc(C(F)(C(F)(F)F)C(F)(F)Cl)cc2OC(F)F)c1F)c1ccncc1 (stereo not shown) [Compound 11]
≥ 80%: pest or weed control at 200 ppm [1] | mortality at 200 ppm [2] | mortality at 200 ppm [3] | pest or weed control at 12.5 ppm [4] | pest or weed control at 200 ppm [5] | pest or weed control at 12.5 ppm [6] | pest or weed control at 200 ppm [7] | mortality at 200 ppm [8]

CCc1cc(C(F)(C(F)(F)F)C(F)(F)Cl)cc(Br)c1NC(=O)c1cccc(N(CC)C(=O)c2ccc(C#N)cc2)c1OC (stereo not shown) [Compound 34]
≥ 80%: pest or weed control at 200 ppm [1] | mortality at 200 ppm [2] | mortality at 200 ppm [3] | pest or weed control at 12.5 ppm [4] | pest or weed control at 200 ppm [5] | pest or weed control at 200 ppm [7] | mortality at 200 ppm [8]

CCc1cc(C(F)(C(F)(F)F)C(F)(F)Cl)cc(Br)c1NC(=O)c1cccc(NC(=O)c2ccc[n+]([O-])c2)c1F (stereo not shown) [Compound 28]
≥ 80%: pest or weed control at 200 ppm [1] | mortality at 200 ppm [2] | mortality at 200 ppm [3] | pest or weed control at 12.5 ppm [4] | pest or weed control at 200 ppm [5] | pest or weed control at 200 ppm [7] | mortality at 200 ppm [8]

CCc1cc(C(F)(C(F)(F)F)C(F)(F)Cl)cc(Br)c1NC(=O)c1cccc(NC(=O)c2cccnc2)c1F (stereo not shown) [Compound 18]
≥ 80%: pest or weed control at 200 ppm [1] | mortality at 200 ppm [2] | mortality at 200 ppm [3] | pest or weed control at 12.5 ppm [4] | pest or weed control at 200 ppm [5] | pest or weed control at 200 ppm [7] | mortality at 200 ppm [8]

CCc1cc(C(F)(C(F)(F)F)C(F)(F)Cl)cc(Br)c1NC(=O)c1cccc(N(CC)C(=O)c2cc[n+]([O-])cc2)c1OC (stereo not shown) [Compound 46]
≥ 80%: pest or weed control at 200 ppm [1] | mortality at 200 ppm [2] | mortality at 200 ppm [3] | pest or weed control at 12.5 ppm [4] | pest or weed control at 200 ppm [5] | pest or weed control at 200 ppm [7] | mortality at 200 ppm [8]

CCc1cc(C(F)(C(F)(F)F)C(F)(F)Cl)cc(Br)c1NC(=O)c1cccc(N(CC)C(=O)c2cc[n+]([O-])cc2)c1F (stereo not shown) [Compound 45]
≥ 80%: pest or weed control at 200 ppm [1] | mortality at 200 ppm [2] | mortality at 200 ppm [3] | pest or weed control at 12.5 ppm [4] | pest or weed control at 200 ppm [5] | pest or weed control at 200 ppm [7] | mortality at 200 ppm [8]

CCc1cc(C(F)(C(F)(F)F)C(F)(F)Cl)cc(Br)c1NC(=O)c1cccc(N(CC)C(=O)c2ccc[n+]([O-])c2)c1F (stereo not shown) [Compound 49]
≥ 80%: pest or weed control at 200 ppm [1] | mortality at 200 ppm [2] | mortality at 200 ppm [3] | pest or weed control at 12.5 ppm [4] | pest or weed control at 200 ppm [5] | pest or weed control at 200 ppm [7] | mortality at 200 ppm [8]

CCc1cc(C(F)(C(F)(F)F)C(F)(F)Cl)cc(Br)c1NC(=O)c1cccc(NC(=O)c2ccncc2)c1F (stereo not shown) [Compound 17]
≥ 80%: pest or weed control at 200 ppm [1] | mortality at 200 ppm [2] | mortality at 200 ppm [3] | pest or weed control at 12.5 ppm [4] | pest or weed control at 200 ppm [5] | pest or weed control at 200 ppm [7] | mortality at 200 ppm [8]

CCc1cc(C(F)(C(F)(F)F)C(F)(F)Cl)cc(Br)c1NC(=O)c1cccc(N(CC)C(=O)c2ccc(C#N)cc2)c1F (stereo not shown) [Compound 33]
≥ 80%: pest or weed control at 200 ppm [1] | mortality at 200 ppm [2] | mortality at 200 ppm [3] | pest or weed control at 12.5 ppm [4] | pest or weed control at 200 ppm [5] | pest or weed control at 200 ppm [7] | mortality at 200 ppm [8]

CCc1cc(C(F)(C(F)(F)F)C(F)(F)Cl)cc(Br)c1NC(=O)c1cccc(NC(=O)c2ccc(C#N)cc2)c1OC (stereo not shown) [Compound 22]
≥ 80%: pest or weed control at 200 ppm [1] | mortality at 200 ppm [2] | mortality at 200 ppm [3] | pest or weed control at 12.5 ppm [4] | pest or weed control at 200 ppm [5] | pest or weed control at 200 ppm [7] | mortality at 200 ppm [8]

CCc1cc(C(F)(C(F)(F)F)C(F)(F)Cl)cc(Br)c1NC(=O)c1cccc(NC(=O)c2ccc[n+]([O-])c2)c1OC (stereo not shown) [Compound 30]
≥ 80%: pest or weed control at 200 ppm [1] | mortality at 200 ppm [2] | mortality at 200 ppm [3] | pest or weed control at 12.5 ppm [4] | pest or weed control at 200 ppm [5] | pest or weed control at 200 ppm [7] | mortality at 200 ppm [8]

CCc1cc(C(F)(C(F)(F)F)C(F)(F)Cl)cc(Br)c1NC(=O)c1cccc(N(CC)C(=O)c2ccncc2)c1OC (stereo not shown) [Compound 38]
≥ 80%: pest or weed control at 200 ppm [1] | mortality at 200 ppm [2] | mortality at 200 ppm [3] | pest or weed control at 12.5 ppm [4] | pest or weed control at 200 ppm [5] | pest or weed control at 200 ppm [7] | mortality at 200 ppm [8]

CCc1cc(C(F)(C(F)(F)F)C(F)(F)Cl)cc(Br)c1NC(=O)c1cccc(NC(=O)c2cc[n+]([O-])cc2)c1OC (stereo not shown) [Compound 29]
≥ 80%: pest or weed control at 200 ppm [1] | mortality at 200 ppm [2] | mortality at 200 ppm [3] | pest or weed control at 12.5 ppm [4] | pest or weed control at 200 ppm [5] | pest or weed control at 200 ppm [7] | mortality at 200 ppm [8]

CCc1cc(C(F)(C(F)(F)F)C(F)(F)Cl)cc(Br)c1NC(=O)c1cccc(NC(=O)c2ccc(C#N)cc2)c1F (stereo not shown) [Compound 19]
≥ 80%: pest or weed control at 200 ppm [1] | mortality at 200 ppm [2] | mortality at 200 ppm [3] | pest or weed control at 12.5 ppm [4] | pest or weed control at 200 ppm [5] | pest or weed control at 200 ppm [7] | mortality at 200 ppm [8]

CCN(C(=O)c1ccncc1)c1cccc(C(=O)Nc2c(Cl)cc(C(F)(C(F)F)C(F)(F)F)cc2Br)c1OC (stereo not shown) [Compound 51, N-[3-[[2-bromo-6-chloro-4-[1-(difluoromethyl)-1,2,2,2-tetrafluoro-ethyl]phenyl]carbamoyl]-2-methoxy-phenyl]-N-ethyl-pyridine-4-carboxamide]
≥ 80%: pest or weed control at 200 ppm [1] | mortality at 200 ppm [2] | mortality at 200 ppm [3] | pest or weed control at 12.5 ppm [4] | pest or weed control at 200 ppm [5] | pest or weed control at 200 ppm [7]

CCc1cc(C(F)(C(F)(F)F)C(F)(F)Cl)cc(Br)c1NC(=O)c1cccc(N(CC)C(=O)c2cccnc2)c1OC (stereo not shown) [Compound 42]
≥ 80%: pest or weed control at 200 ppm [1] | mortality at 200 ppm [2] | mortality at 200 ppm [3] | pest or weed control at 12.5 ppm [4] | pest or weed control at 200 ppm [5] | pest or weed control at 200 ppm [7] | mortality at 200 ppm [8]

CCc1cc(C(F)(C(F)(F)F)C(F)(F)Cl)cc(Br)c1NC(=O)c1cccc(NC(=O)c2cc[n+]([O-])cc2)c1F (stereo not shown) [Compound 27]
≥ 80%: pest or weed control at 200 ppm [1] | mortality at 200 ppm [2] | mortality at 200 ppm [3] | pest or weed control at 12.5 ppm [4] | pest or weed control at 200 ppm [5] | pest or weed control at 200 ppm [7] | mortality at 200 ppm [8]

CCc1cc(C(F)(C(F)(F)F)C(F)(F)Cl)cc(Br)c1NC(=O)c1cccc(NC(=O)c2ccncc2)c1OC (stereo not shown) [Compound 20]
≥ 80%: pest or weed control at 200 ppm [1] | mortality at 200 ppm [2] | mortality at 200 ppm [3] | pest or weed control at 12.5 ppm [4] | pest or weed control at 200 ppm [5] | pest or weed control at 200 ppm [7] | mortality at 200 ppm [8]

CCc1cc(C(F)(C(F)(F)F)C(F)(F)Cl)cc(Br)c1NC(=O)c1cccc(N(CC)C(=O)c2ccncc2)c1F (stereo not shown) [Compound 37]
≥ 80%: pest or weed control at 200 ppm [1] | mortality at 200 ppm [2] | mortality at 200 ppm [3] | pest or weed control at 12.5 ppm [4] | pest or weed control at 200 ppm [5] | pest or weed control at 200 ppm [7] | mortality at 200 ppm [8]
